Measurements as given in PubChem BioAssay AID2060613 (Molecular Pharmacology Branch, DTP, NCI, 2025).

Tested on: 233499-124-R-J3-PDC complex spheroid viability
Assay: Anticancer human tumor 233499-124-R-J3-PDC patient-derived colon adenocarcinoma cell line growth inhibition [CLK]
Conditions: for IC50: curve of first compound; for viability, T/C: stronger effect = lower value
Procedure, shortened: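 Patient-derived tumor cells grown as complex spheroids with HUVEC endothelial cells and mesenchymal stem cells, treated with drug combinations. Concentrations descend in half-log steps from near clinical Cmax, or from 10 microM if Cmax unknown.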

[1] = second compound 0.0316 µM, first compound 0.0316 µM
[2] = second compound 0.0316 µM, first compound 0.1 µM
[3] = second compound 0.0316 µM, first compound 0.316 µM
[4] = second compound 0.0316 µM, first compound 1 µM
[5] = second compound 0.0316 µM, first compound 3.16 µM
[6] = second compound 0.0316 µM, first compound 10 µM
[7] = second compound 0.1 µM, first compound 0.0316 µM
[8] = second compound 0.1 µM, first compound 0.1 µM
[9] = second compound 0.1 µM, first compound 0.316 µM
[10] = second compound 0.1 µM, first compound 1 µM
[11] = second compound 0.1 µM, first compound 3.16 µM
[12] = second compound 0.1 µM, first compound 10 µM
[13] = second compound 0.316 µM, first compound 0.0316 µM
[14] = second compound 0.316 µM, first compound 0.1 µM
[15] = second compound 0.316 µM, first compound 0.316 µM
[16] = second compound 0.316 µM, first compound 1 µM
[17] = second compound 0.316 µM, first compound 3.16 µM
[18] = second compound 0.316 µM, first compound 10 µM
[19] = second compound 1 µM, first compound 0.0316 µM
[20] = second compound 1 µM, first compound 0.1 µM
[21] = second compound 1 µM, first compound 0.316 µM
[22] = second compound 1 µM, first compound 1 µM
[23] = second compound 1 µM, first compound 3.16 µM
[24] = second compound 1 µM, first compound 10 µM
[25] = second compound 3.16 µM, first compound 0.0316 µM
[26] = second compound 3.16 µM, first compound 0.1 µM
[27] = second compound 3.16 µM, first compound 0.316 µM
[28] = second compound 3.16 µM, first compound 1 µM
[29] = second compound 3.16 µM, first compound 3.16 µM
[30] = second compound 3.16 µM, first compound 10 µM
[31] = second compound 10 µM, first compound 0.0316 µM
[32] = second compound 10 µM, first compound 0.1 µM
[33] = second compound 10 µM, first compound 0.316 µM
[34] = second compound 10 µM, first compound 1 µM
[35] = second compound 10 µM, first compound 3.16 µM
[36] = second compound 10 µM, first compound 10 µM
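Also: spheroids exposed to the drug combinations for seven days.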
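For viability, T/C in this document: percent viability relative to DMSO vehicle control wells taken as 100%.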

C=C(F)C(=O)N1CCN(c2nc(OCC3CCCN3C)nc3c2CCN(c2cccc4cccc(Cl)c24)C3)CC1CC#N (centres undefined) + CNC(=O)c1ccc(Nc2nc(OC3CCCC3)c3c(-c4ccc5nc(C)oc5c4)c[nH]c3n2)c(OC)c1
IC50 (second compound 0.0316 µM): 8.76 µM
IC50 (second compound 0.1 µM): 4.72 µM
IC50 (second compound 0.316 µM): 5.57 µM
IC50 (second compound 1 µM): 5.66 µM
IC50 (second compound 3.16 µM): 5.53 µM
IC50 (second compound 10 µM): 5.2 µM
viability, T/C [1]: 92.1%
viability, T/C [2]: 84.5%
viability, T/C [3]: 99%
viability, T/C [4]: 89.6%
viability, T/C [5]: 93.5%
viability, T/C [6]: 44.5%
viability, T/C [7]: 65.9%
viability, T/C [8]: 73.2%
viability, T/C [9]: 81.3%
viability, T/C [10]: 70.2%
viability, T/C [11]: 61.4%
viability, T/C [12]: 28%
viability, T/C [13]: 76.7%
viability, T/C [14]: 64.9%
viability, T/C [15]: 69.7%
viability, T/C [16]: 72.8%
viability, T/C [17]: 79.2%
viability, T/C [18]: 26.7%
viability, T/C [19]: 71.4%
viability, T/C [20]: 82.5%
viability, T/C [21]: 78.4%
viability, T/C [22]: 64%
viability, T/C [23]: 71.2%
viability, T/C [24]: 30%
viability, T/C [25]: 76.8%
viability, T/C [26]: 77.3%
viability, T/C [27]: 75.8%
viability, T/C [28]: 73.1%
viability, T/C [29]: 75.7%
viability, T/C [30]: 22.9%
viability, T/C [31]: 75.5%
viability, T/C [32]: 66.3%
viability, T/C [33]: 73.8%
viability, T/C [34]: 66.5%
viability, T/C [35]: 74.3%
viability, T/C [36]: 22%

CC(Nc1ccc2c(c1)OCCn1cc(N3C(=O)OCC3C(F)F)nc1-2)C(N)=O (centres undefined) + CNC(=O)c1ccc(Nc2nc(OC3CCCC3)c3c(-c4ccc5nc(C)oc5c4)c[nH]c3n2)c(OC)c1
IC50 (second compound 0.0316 µM): > 10 µM
IC50 (second compound 0.1 µM): 3.88 µM
IC50 (second compound 0.316 µM): 2.81 µM
IC50 (second compound 1 µM): 0.316 µM
IC50 (second compound 3.16 µM): 0.624 µM
IC50 (second compound 10 µM): 1.08 µM
viability, T/C [1]: 85.3%
viability, T/C [2]: 94.6%
viability, T/C [3]: 81%
viability, T/C [4]: 72.7%
viability, T/C [5]: 65.5%
viability, T/C [6]: 53.6%
viability, T/C [7]: 68.9%
viability, T/C [8]: 75.1%
viability, T/C [9]: 72.2%
viability, T/C [10]: 64.8%
viability, T/C [11]: 52.9%
viability, T/C [12]: 38.6%
viability, T/C [13]: 66.9%
viability, T/C [14]: 65.7%
viability, T/C [15]: 72.2%
viability, T/C [16]: 58.4%
viability, T/C [17]: 49.6%
viability, T/C [18]: 32.5%
viability, T/C [19]: 74.8%
viability, T/C [20]: 74.9%
viability, T/C [21]: 50%
viability, T/C [22]: 42.7%
viability, T/C [23]: 45.9%
viability, T/C [24]: 42.4%
viability, T/C [25]: 61.3%
viability, T/C [26]: 63.6%
viability, T/C [27]: 56.4%
viability, T/C [28]: 41.1%
viability, T/C [29]: 42.3%
viability, T/C [30]: 37%
viability, T/C [31]: 60.8%
viability, T/C [32]: 55.9%
viability, T/C [33]: 68.1%
viability, T/C [34]: 44.8%
viability, T/C [35]: 39%
viability, T/C [36]: 22.2%
